From patent publication US11286236B2, “Compound, agent and composition for the suppression of cancer growth” (Vector Vitale IP LLC, priority 2018, dated 2022)

Experiments:
Type in all cases: cell-based
[1] = system: Mouse Bone Marrow Cells; experiment: Cytotoxic/cytostatic effects on mouse bone marrow cells (MTT assay)
Experimental: In Vitro Assessment of Cytotoxic/Cytostatic Effects of Experimental Compound ^85Rbe-E2 on Mouse Bone Marrow Cells
(§1) Proliferative and metabolic activity of cells was determined by the colorimetric method.
(§2) The metabolic activity of the cells (i.e., the number of living cells) was assessed by MTT staining.
(§3) 24 hours after the last reagent, the cells were seeded at a concentration of 1×10^4 cells/well in wells of a 96-well plate in complete DMEM nutrient medium with 10% FBS and 40 μg/ml gentamicin. The cells were cultured in a humidified atmosphere at 5% CO2 and 37° C. for 24 hours. After 24 hours, various doses of experimental substances were added to the respective wells. The cells were incubated at 37° C. and 5% CO2 for an additional 72 hours.
(§4) Upon completion of the incubation with the preparations, the proliferative and metabolic activity of the cells in the experiment was evaluated by the colorimetric method by staining MTT cells:
(§5) 10 μl of the MTT solution (5 mg/ml of the dye in phosphate-buffered saline) was added to each well of the plate; the plate was incubated in a CO2 incubator at 37° C. for 3 hours. After that, the medium was removed from the wells, and the formed tetraformazan crystals were dissolved in 100 μl of dimethylsulfoxide.
(§6) When MTT was used, the results were evaluated using a multi-well spectrophotometer at an excitation wavelength of 540 nm. The percentage of viable cells was calculated by the formula: IR=(A540(experiment)/A540(control))×100%.

[2] = system: Normal Human Fibroblasts; experiment: Metabolic activity of normal human fibroblasts (MTT assay)
Experimental: In Vitro Assessment of the Effects of Experimental Compound ^85Rbe-E2 on metabolic Activity of Normal Human Fibroblasts (MTT Assay)
In Vitro Assessment of the Effects of E2+^85Rbe on Metabolic Activity of Normal Human Fibroblasts (MTT Assay)
as §1, §2, §3, §4, §5, §6

[3] = system: human Keratinocytes (HaCaT line); experiment: Metabolic activity of human keratinocytes (HaCaT line)
Experimental: In Vitro Effects of Experimental Compound ^85Rbe-E2 on metabolic activity of human Keratinocytes
as §1, §2, §3, §4, §5, §6

[4] = system: Mouse melanoma cells (MM-4 cell line); experiment: Cytotoxic effect on melanoma cells, single agents (crystal violet)
Experimental: Materials and Methods: Mouse melanoma cells (MM-4 cell line) were seeded into 96-well plates (TPP, Italy) in DMEM (High Glucose w/L-Glutamine w/o Sodium Pyruvate; Biowest, France) supplemented with 10% newborn calf serum (Biowest, France) and […] gentamicin (Sigma, USA) at a seeding density of 5×10^4 cells/ml. The cells were then cultured in an incubator with a humidified atmosphere of 5% CO2 in air at 37° C. 24 hours after the cells were seeded, a compound according to the invention that comprises ^85Rb-enriched rubidium salt of N-benzoyl-N′-(4-toluenesulfonyl)-o-phenylenediamine of formula I was added into the appropriate wells. ^85Rbe-E2 was used at the following doses: 2.0 μg/ml, 1.0 μg/ml, 0.5 μg/ml (each is the final concentration of ^85Rbe after addition to the well). The cytotoxic effect was determined by counting the number of live cells observed after treatment, expressed as a percentage of the number of live cells observed/counted in the control (cells seed in the well and not treated). Control cells were not treated. For each concentration, the experiment was carried out twice. The effects of the drugs were evaluated visually, which allowed us to examine the morphological pattern of the cytotoxic action of the drugs, and by staining the cells with crystal violet, followed by OD measurement at an excitation wavelength of 540 nm using a MultiScan spectrophotometer. For comparison, a parallel experiment was carried out with the use of a known antitumor drug cisplatin and a compound of rubidium salt of N-benzoyl-N′-(4-toluenesulfonyl)-o-phenylenediamine of formula I which comprised a naturally-abundant mixture of isotopes of rubidium instead of being enriched for the ^85Rb isotope.

Q: Which results are given for `Cc1ccc(S(=O)(=O)[N-]c2ccccc2NC(=O)c2ccccc2)cc1.[Rb+]` [E2 + Rb, rubidium salt of N-benzoyl-N′-(4-toluenesulfonyl)-o-phenylenediamine]?
A: Metabolic activity of cells, % ([1]; 1.25 μg/ml): 111.2 ± 6.6%; Metabolic activity of cells, % ([1]; 2.5 μg/ml): 106.8 ± 6%; Metabolic activity of cells, % ([1]; 5 μg/ml): 106.7 ± 11.8%; Metabolic activity of cells, % ([1]; 10 μg/ml): 99.3 ± 4.7%; Metabolic activity of cells, % ([1]; 20 μg/ml): 88 ± 3.5%; Metabolic activity of cells, % ([1]; 38 μg/ml): 96.2 ± 4.4%; Metabolic activity of cells, % ([1]; 75 μg/ml): 105.2 ± 7.8%; Metabolic activity of cells, % ([1]; 150 μg/ml): 107.1 ± 3.8%; Metabolic activity of cells, % ([2]; 2.5 μg/ml): 128.2 ± 8.3%; Metabolic activity of cells, % ([2]; 5 μg/ml): 103.4 ± 9.3%; Metabolic activity of cells, % ([2]; 10 μg/ml): 104.6 ± 14.2%; Metabolic activity of cells, % ([2]; 20 μg/ml): 96.8 ± 9.8%; Metabolic activity of cells, % ([2]; 38 μg/ml): 98.8 ± 7.1%; Metabolic activity of cells, % ([2]; 75 μg/ml): 97.7 ± 7.5%; Metabolic activity of cells, % ([2]; 150 μg/ml): 99.3 ± 3.2%; Metabolic activity of cells, % ([3]; 16 ng/ml): 104.7 ± 3.2%; Metabolic activity of cells, % ([3]; 31 ng/ml): 99.2 ± 12.5%; Metabolic activity of cells, % ([3]; 62 ng/ml): 97.3 ± 4.1%; Metabolic activity of cells, % ([3]; 0.13 μg/ml): 87.5 ± 6.7%; Metabolic activity of cells, % ([3]; 0.25 μg/ml): 95 ± 1.7%; Metabolic activity of cells, % ([3]; 0.5 μg/ml): 103 ± 2.7%; Metabolic activity of cells, % ([3]; 1 μg/ml): 130 ± 2%; Number of cells after their treatment with the drug, % ([4]; 0.5 μg/ml of rubidium (85Rbe or Rb)): 90.6 ± 0.9%; Number of cells after their treatment with the drug, % ([4]; 1.0 μg/ml of rubidium (85Rbe or Rb)): 84.9 ± 0.9%; Number of cells after their treatment with the drug, % ([4]; 2.0 μg/ml of rubidium (85Rbe or Rb)): 62.1 ± 0.8%; Activity against tumor cells compared with the 85Rb-enriched salt ([4]; 0.5-2.0 μg rubidium/ml): significantly lower activity against tumor cells
